In US11578055B2, “Triazacyclododecansulfonamide (“TCD”)-based protein secretion inhibitors” (KEZAR LIFE SCIENCES, priority 2018, dated 2023):

Key:
[1] = In Vitro Microsome Stability Assay (mouse); type: in vitro ADME; conditions: mouse liver microsomes, 30 min w/ NADPH
Summary of the method: (§1)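 Test article, added from a 0.25 mM DMSO stock, was incubated with liver microsomes (20 mg/mL stock) in 0.1 M potassium phosphate at 37° C, with the reaction started by NADPH. Samples were quenched with acetonitrile containing internal standard at 0 and 30 min and analysed by LC-MS/MS. Values are % remaining at 30 min versus 0 min, using IS-normalised AUC ratios.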

[2] = In Vitro Microsome Stability Assay (human); type: in vitro ADME; conditions: human liver microsomes, 30 min w/ NADPH
Summary of the method: as §1

[3] = In Vitro Microsome Stability Assay (rat); type: in vitro ADME; conditions: rat liver microsomes, 30 min w/ NADPH
Summary of the method: as §1

[4] = test system: PD1 signal sequence plus 10 amino acids fused to Gaussia Luciferase (PD1-ss+10aa/Gaussia Luciferase); experiment: Dox Induced PD1-ss-Gluc Assay; type: cell-based; conditions: 24 hr, Dox inducible, 293FRT/TO cells; read-out: 24 hr Dox Inducible PD1ssGluc 293FRT/TO: Mean IC50
Summary of the method: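 Stable Flp-In 293 T-REx line expressing the fusion under tetracycline-inducible control, plated the day before assay. Compound dilutions added with doxycycline and incubated at 37 °C, 5% CO2; unspecified stereocentres mean data refer to stereoisomer mixtures.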

[5] = test system: HER3 signal sequence plus 4 amino acids fused to Gaussia Luciferase (HER3-ss+4aa/Gaussia Luciferase); experiment: Dox Induced HER3-ss-Gluc Assay; type: cell-based; conditions: 24 hr, doxycycline induced, Flp-In 293 T-REx cells; read-out: 24 hr Dox Inducible Her3(ss + 4) Gluc 293FRT/TO: Mean 1050
Description: FIp-In 293 T-REx™ cells were transfected with pcDNA™5/FRT/TO plasmid inserted with cDNA encoding Gaussia Luciferase fused to the 3′ end of cDNA encoding HER3 signal sequence plus 4 amino acids (N-[…]-C) (SEQ ID NO: 2). Transfected cells were selected for resistance to the selectable markers Hygromycin and Blasticidin to create a stable cell line that contained the HER3-ss+4aa/Gaussia Luciferase cDNA insert whose expression was regulated under the T-REx™ system. The day before assay, cells were trypsinized and plated in 384-well tissue culture plates. The next day, compound dilutions in DMSO/media containing doxycycline were added to the wells and incubated at 37° C., 5% CO2.
For chemical structures that include one or more stereoisomers, but are illustrated without indicating stereochemistry, the assay data refers to a mixture of stereoisomers.

[6] = test system: full length TNFα (amino acids 1-233) fused to Gaussia Luciferase; experiment: Dox Induced TNFα-FL-Gluc Assay; type: cell-based; conditions: 24 hr, Dox inducible, 293FRT/TO cells; read-out: 24 hr Dox Inducible TNFaFLGluc 293FRT/TO: Mean IC50
Summary of the method: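 Stable Flp-In 293 T-REx line expressing doxycycline-inducible full-length TNFα fused to Gaussia luciferase; cells plated the day before, then treated with compound dilutions in doxycycline-containing medium at 37° C, 5% CO2. Unspecified stereocentres mean stereoisomer mixtures were tested.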

[7] = In Vitro Microsome Stability Assay (monkey); type: in vitro ADME; conditions: monkey liver microsomes, 30 min w/ NADPH
Summary of the method: as §1

[8] = test system: multiple myeloma cell line U266B1; experiment: U266 Cell Viability Assay; type: cell-based, human; conditions: Homo sapiens, U-266; 48 hr, U266, Celltiter-Glo
Summary of the method: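 U266B1 myeloma cells in RPMI 1640 with 10% FBS were treated with compound dilutions for 48 h at 37° C, 5% CO2. Viability was read as CellTiter-Glo luminescence. Data for structures drawn without stereochemistry refer to stereoisomer mixtures.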

[9] = test system: multiple myeloma cell line NCl-H929; experiment: H929 Cell Viability Assay; type: cell-based, human; conditions: Homo sapiens, NCI-H929, 48 h, H929, Celltiter-Glo
Summary of the method: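 NCI-H929 myeloma cells in RPMI 1640 with 10% FBS were treated with compound dilutions for 48 h at 37 °C, and viability was then read by CellTiter-Glo luminescence. Compounds drawn without stereochemistry were tested as stereoisomer mixtures.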

[10] = test system: full length IL-2 (amino acids 1-153) fused to Gaussia Luciferase; experiment: Dox Induced IL2-FL-Gluc Assay; type: cell-based; conditions: 24 hr, Dox inducible, 293FRT/TO cells; read-out: 24 hr Dox Inducible IL2FLGluc 293FRT/TO: Mean IC50
Summary of the method: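 Flp-In 293 T-REx stable line expressing full-length IL-2 (aa 1-153) with C-terminal Gaussia luciferase fusion under doxycycline-inducible control. Cells plated the day before; compound dilutions added in DMSO/media containing doxycycline, incubated at 37° C, 5% CO2.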

SMILES | Liver Microsome Stability-% Left after 30 min w/ NADPH (%) Mouse [1] [%] | Liver Microsome Stability-% Left after 30 min w/ NADPH (%) Human [2] [%] | Liver Microsome Stability-% Left after 30 min w/ NADPH (%) Rat [3] [%] | IC50 [4] [nM] | IC50 [5] [nM] | IC50 [6] [nM] | Liver Microsome Stability-% Left after 30 min w/ NADPH (%) Monkey [7] [%] | EC50 [8] [nM] | EC50 [9] [nM] | IC50 [10] [nM]
C[C@H]1CN(S(=O)(=O)c2ccc(C(=O)N(C)C)cc2)CCCN(CC2CCCCC2)CCCN(S(=O)(=O)N2CCc3cc(Cl)ccc3C2)C1 [A179, 4-{[(3S)-5-[(6-chloro-1,2,3,4-tetrahydroisoquinolin-2-yl)sulfonyl]-9-(cyclohexylmethyl)-3-methyl-1,5,9-triazacyclododecan-1-yl]sulfonyl}-N,N-dimethylbenzamide] | 0.5 | 0.04 | 0.18 | 270 | 400 | 3250 | 0.26 | > 25000 | 11300 | 72.6
CC[C@H]1CN(S(=O)(=O)c2ccc(N(C)C)cc2)CCCN(CC2CCCCC2)CCCN(S(=O)(=O)N2CCc3cc(Cl)ccc3C2)C1 [A182] | 61.7 | 53.7 | 41.9 | 78.8 | 203 | 1960 | 41.5 | > 25000 | > 25000 | 256
C[C@H]1CN(S(=O)(=O)c2ccc(N(C)C)cc2)CCCN(CC2CCCCC2)CCCN(S(=O)(=O)N(C)Cc2ccccc2)C1 [A184, (3S)-N-benzyl-9-(cyclohexylmethyl)-5-[4-(dimethylamino)benzenesulfonyl]-N,3-dimethyl-1,5,9-triazacyclododecane-1-sulfonamide] | 5.64 | 2.56 | 7.47 | 100 | 156 | 1080 | 1.23 | > 25000 | 6920 | 233
C[C@@H]1CN(S(=O)(=O)NCc2ccccc2)CCCN(CC2CCCCC2)CCCN(S(=O)(=O)c2ccc(N(C)C)cc2)C1 [A187, (3S)-N-benzyl-9-(cyclohexylmethyl)-5-[4-(dimethylamino)benzenesulfonyl]-3-methyl-1,5,9-triazacyclododecane-1-sulfonamide] | 0.03 | 0.05 | 0.07 | 427 | 802 | 6170 | 0.15 | > 25000 | 3870 | 1090
C[C@H]1CN(S(=O)(=O)c2ccc3c(ccn3C)c2)CCCN(CC2CCCCC2)CCCN(S(=O)(=O)N2CCc3cc(Cl)ccc3C2)C1 [A188, 6-chloro-2-{[(3S)-9-(cyclohexylmethyl)-3-methyl-5-[(1-methyl-1 H-indol-5-yl)sulfonyl]-1,5,9-triazacyclododecan-1-yl]sulfonyl}-1,2,3,4-tetrahydroisoquinoline] | 4.48 | 27 | 27.8 | 38.9 | 88 | 714 | 12.4 | > 25000 | 1560 | 99.3
CCc1ccc(CNS(=O)(=O)N2CCCN(CC3CCCCC3)CCCN(S(=O)(=O)c3ccc(N(C)C)cc3)C[C@H](C)C2)cc1 [A189, (3S)-9-(cyclohexylmethyl)-5-[4-(dimethylamino)benzenesulfonyl]-N-[(4-ethylpheny)methyl]-3-methyl-1,5,9-triazacyclododecane-1-sulfonamide] | 0.14 | 0.06 | 0.07 | 512 | 960 | 8140 | 0.01 | > 25000 | 10600 | 1360

Results, then the molecule that gave them:

Liver Microsome Stability-% Left after 30 min w/ NADPH (%) Mouse [1] [%] | Liver Microsome Stability-% Left after 30 min w/ NADPH (%) Human [2] [%] | Liver Microsome Stability-% Left after 30 min w/ NADPH (%) Rat [3] [%] | IC50 [4] [nM] | IC50 [5] [nM] | IC50 [6] [nM] | Liver Microsome Stability-% Left after 30 min w/ NADPH (%) Monkey [7] [%] | EC50 [8] [nM] | EC50 [9] [nM] | IC50 [10] [nM] | SMILES
1.01 | 18.9 | 1.25 | 607 | 913 | > 25000 | 1.91 | > 25000 | > 25000 | 802 | C[C@H]1CN(S(=O)(=O)c2ccc(N(C)C)cc2)CCCN(Cc2ccon2)CCCN(S(=O)(=O)N2CCc3cc(Cl)ccc3C2)C1 [A124, 4-{[(3S)-5-[(6-chloro-1,2,3,4-tetrahydroisoquinolin-2-yl)sulfonyl]-3-methyl-9-[(1,2-oxazol-3-yl)methyl]-1,5,9-triazacyclododecan-1-yl]sulfonyl}-N,N-dimethylaniline]
30.1 | 21.8 | 37.8 | 43.2 | 85.5 | 573 | 10.0 | > 25000 | 1470 | 85.4 | C[C@H]1CN(S(=O)(=O)c2ccc(N(C)C)cc2)CCCN(CC2CCC(F)(F)CC2)CCCN(S(=O)(=O)N2CCc3cc(Cl)ccc3C2)C1 [A185, 4-{[(3S)-5-[(6-chloro-1,2,3,4-tetrahydroisoquinolin-2-yl)sulfonyl]-9-[(4,4-difluorocyclohexyl)methyl]-3-methyl-1,5,9-triazacyclododecan-1-yl]sulfonyl}-N,N-dimethylaniline]
69.3 | 74.1 | 85.3 | 16.2 | 35.6 | 295 | 71.6 | > 25000 | 867 | 45.7 | C[C@H]1CN(S(=O)(=O)c2ccc(N(C)C)cc2)CCCN([C@@H](C)C2CCCCC2)CCCN(S(=O)(=O)N2CCc3cc(Cl)ccc3C2)C1 [A190, 4-{[(3S)-5-[(6-chloro-1,2,3,4-tetrahydroisoquinolin-2-yl)sulfonyl]-9-[(1 S)-1-cyclohexylethyl]-3-methyl-1,5,9-triazacyclododecan-1-yl]sulfonyl}-N,N-dimethylaniline]
55.3 | 48.6 | 65.0 | 57.6 | 117 | 1100 | 68.3 | > 25000 | 6730 | 145 | C[C@H]1CN(S(=O)(=O)c2ccc(N(C)C)cc2)CCCN([C@H](C)C2CCCCC2)CCCN(S(=O)(=O)N2CCc3cc(Cl)ccc3C2)C1 [A191, 4-{[(3S)-5-[(6-chloro-1,2,3,4-tetrahydroisoquinolin-2-yl)sulfonyl]-9-[(1 R)-1-cyclohexylethyl]-3-methyl-1,5,9-triazacyclododecan-1-yl]sulfonyl}-N,N-dimethylaniline]
